The test system of this test is 128128-338-R-J1-PDC spheroids, viability % test/control. The test is described as follows: Anticancer human tumor 128128-338-R-J1-PDC patient-derived melanoma cell line growth inhibition [TAK]. As to conditions: spheroids with HUVEC and MSC; for viability, T/C: stronger effect = lower value. A digest of the protocol:
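Spheroids of 60% malignant cells, 25% HUVEC and 15% hMSC were exposed to targeted agents combined with TAK-243 or ipatasertib. Concentrations started at or near clinical Cmax (10 microM if unknown) and descended in half-log steps.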

One may read the IC50 as the midpoint of a concentration-inhibition curve. One may read the viability, T/C as the ratio of treated to control.

Where “and” joins values, the source holds several entries; their conditions need not be identical. Equal values may be shown once. Calls of active or inactive are those of the source. How the source made its calls: active means viability on the fitted dose curve at most 10% of control; inactive means the rest.
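Further: spheroids exposed to compounds for 7 days.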
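Wherever viability, T/C is given: 100% = DMSO vehicle wells.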

On to `COC1CC2CCC(C)C(O)(O2)C(=O)C(=O)N2CCCCC2C(=O)OC(C(C)CC2CCC(OCCO)C(OC)C2)CC(=O)C(C)C=C(C)C(O)C(OC)C(=O)C(C)CC(C)C=CC=CC=C1C` (centres undefined) + CC(C)NCC(C(=O)N1CCN(c2ncnc3c2C(C)CC3O)CC1)c1ccc(Cl)cc1, for which the IC50 was over 100 nM (curve of first compound, second compound 0.3 µM); 18.5 nM (curve of first compound, second compound 0.949 µM); 7.41 nM (curve of first compound, second compound 3 µM); 0.462 nM (curve of first compound, second compound 9.49 µM); under 0.316 nM (curve of first compound, second compound 30 µM). Moreover, the viability, T/C by setting is: (second compound 0.3 µM, first compound 0.000316 µM) 110%; (second compound 0.3 µM, first compound 0.001 µM) 99.9%; (second compound 0.3 µM, first compound 0.00316 µM) 87.6%; (second compound 0.3 µM, first compound 0.01 µM) 69.1%; (second compound 0.3 µM, first compound 0.0316 µM) 56.6%; (second compound 0.3 µM, first compound 0.1 µM) 54.4%. In addition, the viability, T/C was 110% (second compound 0.949 µM, first compound 0.000316 µM); 97.4% (second compound 0.949 µM, first compound 0.001 µM); 68.8% (second compound 0.949 µM, first compound 0.00316 µM); 56.4% (second compound 0.949 µM, first compound 0.01 µM); 48.8% (second compound 0.949 µM, first compound 0.0316 µM); 35.6% (second compound 0.949 µM, first compound 0.1 µM). The viability, T/C reads like this: (second compound 3 µM, first compound 0.000316 µM) 88%; (second compound 3 µM, first compound 0.001 µM) 77.4%; (second compound 3 µM, first compound 0.00316 µM) 62.5%; (second compound 9.49 µM, first compound 0.000316 µM) 56.3%; (second compound 9.49 µM, first compound 0.001 µM) 37.2%; (second compound 9.49 µM, first compound 0.00316 µM) 20.4%. The viability, T/C (second compound 9.49 µM, first compound 0.01 µM) was 11.9%; the viability, T/C (second compound 9.49 µM, first compound 0.0316 µM) was 9.65%; the viability, T/C (second compound 9.49 µM, first compound 0.1 µM) is 9.71%; the viability, T/C (second compound 30 µM, first compound 0.000316 µM) is 9.06%; the viability, T/C (second compound 30 µM, first compound 0.001 µM) was 7.48%; the viability, T/C (second compound 30 µM, first compound 0.00316 µM) was 3.65%. Moreover, the viability, T/C is 2.31% (second compound 30 µM, first compound 0.01 µM); 2.3% (second compound 30 µM, first compound 0.0316 µM); 2.06% (second compound 30 µM, first compound 0.1 µM). The outcome reads like this: (second compound 3 µM, first compound 0.01 µM) “inactive”; (second compound 3 µM, first compound 0.0316 µM) “inactive”; (second compound 3 µM, first compound 0.1 µM) “inactive”.
On to `COc1c(OCCCN2CCOCC2)ccc2c3n(c(=NC(=O)c4cnc(N)nc4)nc12)CCN3`, for which the viability, T/C is, setting by setting: (compound 0.00316 µM) 109% and 105%; (compound 0.01 µM) 99.4% and 96.6%; (compound 0.0316 µM) 99.3% and 84.1%; (compound 0.1 µM) 75.9% and 72%; (compound 0.316 µM) 21.6% and 15.2%; (compound 1 µM) 8.68% and 5.59%. Further, the IC50 (curve of compound) was 173 nM and 153 nM.
With `Cn1cnc2c(F)c(Nc3ccc(Br)cc3Cl)c(C(=O)NOCCO)cc21`, the viability, T/C (compound 0.00949 µM) was 95.7% and 94.9%; the viability, T/C (compound 0.03 µM) is 75.4% and 82.6%; the viability, T/C (compound 0.0949 µM) is 44.2% and 50.7%; the viability, T/C (compound 0.3 µM) was 9.03% and 14.9%; the viability, T/C (compound 0.949 µM) is 3.38% and 4.34%; the viability, T/C (compound 3 µM) is 3.13% and 2.58%. Under “curve of compound”, the IC50 was 72.1 nM and 94.6 nM.

Values taken from PubChem BioAssay AID2060362 (Molecular Pharmacology Branch, DTP, NCI, 2025).
